Test results: patent US10722491B2, “Phenol compound and combination of same with a benzodiazepine fused to 1,4-dihydropyridine for treating diseases of the central nervous and vascular systems” (UNIVERSIDAD DE LA HABANA, priority 2016, dated 2020)

What was measured:
[1] = test system: scopolamine cognitive deficit; experiment: Scopolamine-induced dementia, new-object recognition; format: in vivo, rats; conditions: 4 and 8 mg/kg p.o., 1 hour before scopolamine 1 mg/kg i.p.
Procedure: FIG. 12. Effect of KM-34 on the recognition memory of new objects. In the new-object recognition test, KM-34 (2, 4 and 8 mg/kg, p.o) was administered 1 hour prior to scopolamine (1 mg/kg, i.p.) prior to the training phase. The results are expressed as the discrimination rate of the total time by scanning the object N with respect to F. The data are expressed as mean ± SD (n=8, per group). For statistical analysis, ANOVA and Tukey's multiple comparison test were performed. Different letters differ from each other for p<0.01.
In in vivo models, KM-34 was administered orally (p.o) at a rate of 4 mL/kg body weight. Doses of 2, 4 and 8 mg/kg were evaluated as acute administration 90 minutes before the start of behavioral tests. For administration the compound was suspended in carboxymethylcellulose (CMC) 0.05%. Scopolamine bromide was dissolved in 0.9% saline solution and administered intraperitoneally as a single dose (1 mg/kg, 4 mL/kg body weight) 30 minutes prior to the initiation of the behavioral tests. […]
This trial was conducted as proposed by Capurro et al. (Capurro et al., 2013), in an open field, on two successive days. […] The tests were video-recorded for the analysis of the exploration of the objects, defined by the time of exploration that the animal performs to each object. The discrimination rates between the F and N objects were calculated as: ID=(N−F)/(N+F).

[2] = test system: occlusion of the middle cerebral artery in rats; experiment: Transient middle cerebral artery occlusion, cerebral infarct size (TTC); format: in vivo; conditions: for Total volume of infarction (percentage of the contralateral hemisphere): 1 hour after reperfusion, 90 min occlusion, 23 h reperfusion, vehicle 27.5%
Procedure: FIG. 13. Acute treatment with KM-34 reduced the volume of infarction edema and deficit in rat behavior after 90 min of middle cerebral artery occlusion (MACA) and 23 hours of reperfusion. The different doses of the compound were administered orally 1 hour after reperfusion. (A) Representative brain coronal sections (2 mm thick) of the sham and ischemic groups treated with vehicle or KM-34 (0.1, 0.5 or 1 mg/kg) and stained with 2,3,5-triphenyltetrazolium (TTC) 2%. The red regions correspond to undamaged tissue and white to ischemic regions. (B) Quantitative analysis of cortical, subcortical and total lesion size. (C) Neurological deficit. The bars represent the mean ± SEM (n=8). Different letters in (A) and * in (B): p<0.05, by ANOVA and post hoc of Newman-Keuls. Scale=10 mm.
The animals were randomly divided into the following groups (n=8 per group): (1) vehicle treated ischemia/reperfusion (I/R) control, (2) KM-34 treated I/R 0.1 mg/kg, (3) I/R treated with KM-34 0.5 mg/kg, (4) I/R treated with KM-34 1 mg/kg, (5) sham-operated vehicle treated and (6) sham—With KM-34 1 mg/kg. In all cases the treatment was administered orally (with an intragastric cannula). […]
Transient cerebral ischemia was performed by the OACM, using the intraluminal filament method. […] After 23 hours of reperfusion, the neurological deficit was evaluated and the animals sacrificed to determine the infarct volume and perform the behavioral evaluations.
Cerebral infarction was determined by staining with TTC, a colorless compound in solution but which, when reduced by dehydrogenases of functional mitochondria, forms a red brick formazan salt. […]
The animals were anesthetized again after the neurological evaluation and were perfused transcardially with 20 mL of saline at 4° C. […] The edema index (volume of the hemisphere ipsilateral to the OACM/volume of the contralateral hemisphere) and the volume of corrected infarction (volume of the lesion/edema index) were calculated to avoid overestimation of the infarct volume by cerebral edema. Infarct volume was expressed as a percentage of the contralateral hemisphere.

CC1(C)OC(=O)C(=Cc2ccc(O)c(O)c2)C(=O)O1 [KM-34, 5-[(3,4-dihydroxyphenyl)methylidene]-2,2-dimethyl-1,3-dioxane-4,6-dione]
Recognition memory, discrimination index of new objects [1]: able to revert the affectation on the learning and the memory of term recognition induced by scopolamine | Total volume of infarction (percentage of the contralateral hemisphere) ([2]; 0.5 mg/kg oral): 15.7% | Total volume of infarction (percentage of the contralateral hemisphere) ([2]; 1 mg/kg oral): 5.3% | Tissue damage or behavioral alterations under basal conditions ([2]; sham group (without OACM), KM-34 1 mg/kg oral): no sign of tissue damage or behavioral alterations
